This passage reports IC50 results from patent publication US10968215B2 (SHANGHAI HAIHE PHARMACEUTICAL CO., LTD., priority 2016, dated 2021).

For one test, the target named is PRC2 complex (EZH2 Y641F/EED/SUZ12/RbAp48/AEBP2) (Homo sapiens (Human), UniProt Q15910, Y641F). Kind of test: Activity of a compound to PRC2 complex (EZH2 Y641F), HTRF.
Chain of PRC2 complex (EZH2 Y641F/EED/SUZ12/RbAp48/AEBP2) (Q15910 whole entry Y641F): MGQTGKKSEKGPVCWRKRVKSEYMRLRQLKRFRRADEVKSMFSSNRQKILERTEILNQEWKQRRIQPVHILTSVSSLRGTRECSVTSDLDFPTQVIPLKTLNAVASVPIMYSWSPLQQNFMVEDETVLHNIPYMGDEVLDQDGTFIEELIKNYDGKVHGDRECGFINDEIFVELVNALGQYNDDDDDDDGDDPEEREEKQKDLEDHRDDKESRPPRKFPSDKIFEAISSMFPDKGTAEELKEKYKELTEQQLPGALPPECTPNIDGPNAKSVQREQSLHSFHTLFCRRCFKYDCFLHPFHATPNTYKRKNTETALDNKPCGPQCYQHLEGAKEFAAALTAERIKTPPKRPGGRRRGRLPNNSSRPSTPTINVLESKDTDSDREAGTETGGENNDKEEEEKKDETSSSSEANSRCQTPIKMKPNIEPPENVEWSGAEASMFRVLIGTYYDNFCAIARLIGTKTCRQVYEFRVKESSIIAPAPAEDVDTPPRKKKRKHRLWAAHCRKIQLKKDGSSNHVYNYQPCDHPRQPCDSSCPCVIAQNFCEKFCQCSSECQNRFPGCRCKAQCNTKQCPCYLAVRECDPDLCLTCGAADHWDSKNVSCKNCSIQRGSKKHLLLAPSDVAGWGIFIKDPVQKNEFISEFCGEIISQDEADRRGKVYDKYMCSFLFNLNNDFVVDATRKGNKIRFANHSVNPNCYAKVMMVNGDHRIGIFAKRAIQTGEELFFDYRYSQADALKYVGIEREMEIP
Chain of PRC2 complex (EZH2 Y641F/EED/SUZ12/RbAp48/AEBP2) (O75530 whole entry partner): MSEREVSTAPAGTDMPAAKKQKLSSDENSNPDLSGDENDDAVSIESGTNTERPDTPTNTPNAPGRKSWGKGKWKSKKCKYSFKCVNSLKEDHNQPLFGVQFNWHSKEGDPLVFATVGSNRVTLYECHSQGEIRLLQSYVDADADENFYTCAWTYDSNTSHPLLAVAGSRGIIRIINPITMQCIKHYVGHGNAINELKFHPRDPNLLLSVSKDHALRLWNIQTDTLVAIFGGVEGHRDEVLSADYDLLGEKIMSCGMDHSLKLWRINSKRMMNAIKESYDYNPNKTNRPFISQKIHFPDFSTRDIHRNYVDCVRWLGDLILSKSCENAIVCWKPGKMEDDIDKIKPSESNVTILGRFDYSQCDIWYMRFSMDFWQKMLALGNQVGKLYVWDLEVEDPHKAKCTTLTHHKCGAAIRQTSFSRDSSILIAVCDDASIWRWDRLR
Chain of PRC2 complex (EZH2 Y641F/EED/SUZ12/RbAp48/AEBP2) (Q15022 whole entry partner): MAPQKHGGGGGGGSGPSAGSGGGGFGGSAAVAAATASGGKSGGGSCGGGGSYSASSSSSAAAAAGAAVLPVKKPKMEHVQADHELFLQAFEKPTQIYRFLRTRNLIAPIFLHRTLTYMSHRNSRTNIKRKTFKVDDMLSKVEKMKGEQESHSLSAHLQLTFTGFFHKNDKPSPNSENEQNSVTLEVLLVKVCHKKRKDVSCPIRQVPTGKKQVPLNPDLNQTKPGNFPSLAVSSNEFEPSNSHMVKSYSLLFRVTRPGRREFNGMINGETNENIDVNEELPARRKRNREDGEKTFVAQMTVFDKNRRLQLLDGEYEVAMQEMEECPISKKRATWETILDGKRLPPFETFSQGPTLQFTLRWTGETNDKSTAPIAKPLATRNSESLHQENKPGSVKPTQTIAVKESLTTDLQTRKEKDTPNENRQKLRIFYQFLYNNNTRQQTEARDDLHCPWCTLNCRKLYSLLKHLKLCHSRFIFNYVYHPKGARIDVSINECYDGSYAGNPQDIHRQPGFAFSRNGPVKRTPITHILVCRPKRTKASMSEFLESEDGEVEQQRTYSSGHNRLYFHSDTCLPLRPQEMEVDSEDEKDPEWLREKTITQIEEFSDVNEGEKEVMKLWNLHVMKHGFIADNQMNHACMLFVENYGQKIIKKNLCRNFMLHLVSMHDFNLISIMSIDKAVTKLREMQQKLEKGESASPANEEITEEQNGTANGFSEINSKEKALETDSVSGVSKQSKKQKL
Chain of PRC2 complex (EZH2 Y641F/EED/SUZ12/RbAp48/AEBP2) (Q09028 whole entry partner): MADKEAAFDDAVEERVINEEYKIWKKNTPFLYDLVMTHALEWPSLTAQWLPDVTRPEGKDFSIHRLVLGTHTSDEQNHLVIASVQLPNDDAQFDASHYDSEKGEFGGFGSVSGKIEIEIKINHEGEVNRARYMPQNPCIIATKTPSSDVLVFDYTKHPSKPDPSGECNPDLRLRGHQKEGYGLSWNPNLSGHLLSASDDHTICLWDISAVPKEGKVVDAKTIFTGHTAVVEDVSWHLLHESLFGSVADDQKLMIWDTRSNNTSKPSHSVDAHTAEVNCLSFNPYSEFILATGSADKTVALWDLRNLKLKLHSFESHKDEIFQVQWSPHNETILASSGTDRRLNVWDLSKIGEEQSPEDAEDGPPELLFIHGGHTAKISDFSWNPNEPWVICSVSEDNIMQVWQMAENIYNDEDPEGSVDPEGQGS
Chain of PRC2 complex (EZH2 Y641F/EED/SUZ12/RbAp48/AEBP2) (Q6ZN18 whole entry partner): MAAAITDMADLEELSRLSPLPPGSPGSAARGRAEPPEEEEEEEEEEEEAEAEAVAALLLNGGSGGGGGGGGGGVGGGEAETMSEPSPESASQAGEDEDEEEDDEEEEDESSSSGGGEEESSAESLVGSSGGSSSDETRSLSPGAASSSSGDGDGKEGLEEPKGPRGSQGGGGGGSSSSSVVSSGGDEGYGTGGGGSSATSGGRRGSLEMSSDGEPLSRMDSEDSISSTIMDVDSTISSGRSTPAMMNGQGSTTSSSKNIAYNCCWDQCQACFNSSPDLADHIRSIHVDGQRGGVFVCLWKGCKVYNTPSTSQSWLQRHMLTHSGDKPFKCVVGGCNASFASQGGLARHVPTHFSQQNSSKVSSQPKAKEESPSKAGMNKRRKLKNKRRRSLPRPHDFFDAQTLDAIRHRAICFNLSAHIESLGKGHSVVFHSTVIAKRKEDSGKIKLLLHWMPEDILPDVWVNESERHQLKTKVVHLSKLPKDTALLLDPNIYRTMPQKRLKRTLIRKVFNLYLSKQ
Conditions: not given
(In general: Time-resolved FRET reads energy transfer from a long-lived donor to a nearby acceptor.)
By IC50 is commonly meant the concentration at which inhibition is half-maximal. The compound `Cc1cc(C)c(CNC(=O)c2cc3cc(-c4ccncc4)cn3c(C(C)N3CCC(N(C)C)CC3)c2C)c(=O)[nH]1` (centres unmarked) [Example 93, N-((4,6-dimethyl-2-oxo-1,2-dihydropyridin-3-yl)methyl)-5-(1-(4-(dimethylamino)piperidine-1-yl)ethyl)-6-methyl-2-(pyridin-4-yl)indolizine-7-carboxamide] registered an IC50 below 100 nM.

In turn, `COc1ccc(-c2cc3cc(C(=O)NCc4c(C)cc(C)[nH]c4=O)c(C)c(C(C)N4CCOCC4)n3c2)cc1` (centres unmarked) [Example 97, N-((4,6-dimethyl-2-oxo-1,2-dihydropyridin-3-yl)methyl)-2-(4-methoxyphenyl)-6-methyl-5-(1-morpholinoethyl)indolizine-7-carboxamide] registered an IC50 of 100 to 1000 nM.

Consider `Cc1cc(C)c(CNC(=O)c2cc3cc(Br)cn3c(C(C)N3CCNCC3)c2C)c(=O)[nH]1` (centres unmarked) [Example 100], for which the IC50 fell in the range of 100 to 1000 nM.

In turn, `Cc1cc(C)c(CNC(=O)c2cc3cc(Br)cn3c(C(C)N3CCN(S(C)(=O)=O)CC3)c2C)c(=O)[nH]1` (centres unmarked) [Example 103, 2-bromo-N-((4,6-dimethyl-2-oxo-1,2-dihydropyridin-3-yl)methyl)-6-methyl-5-(1-(4-(methylsulfonyl)piperazin-1-yl)ethyl)indolizine-7-carboxamide] registered an IC50 of 100 to 1000 nM.

As to `Cc1cc(C)c(CNC(=O)c2cc3cc(-c4ccnn4C)cn3c(C(C)N3CCC(N(C)C)CC3)c2C)c(=O)[nH]1` (centres unmarked) [Example 106, N-((4,6-dimethyl-2-oxo-1,2-dihydropyridin-3-yl)methyl)-5-(1-(4-(dimethylamino)piperidine-1-yl)ethyl)-6-methyl-2-(1-methyl-1H-pyrazol-5-yl)indolizine-7-carboxamide], the IC50 was below 100 nM.

Compound `COc1cc(C)[nH]c(=O)c1CNC(=O)c1cc2cc(-c3nccn3C)cn2c(C(C)N2CCN(CC(F)(F)F)CC2)c1C` (centres unmarked) [Example 109, N-((4-methoxy-6-methyl-2-oxo-1,2-dihydropyridin-3-yl)methyl)-6-methyl-2-(1-methyl-1H-imidazol-2-yl)-5-(1-(4-(2,2,2-trifluoroethyl)piperazin-1-yl)ethyl)indolizine-7-carboxamide] registered an IC50 of 100 to 1000 nM.

In turn, `Cc1cc(C)c(CNC(=O)c2cc3cc(-c4cc5c(s4)CCNC5)cn3c(C(C)N3CCOCC3)c2C)c(=O)[nH]1` (centres unmarked) [Example 115, N-((4,6-dimethyl-2-oxo-1,2-dihydropyridin-3-yl)methyl)-6-methyl-5-(1-morpholinoethyl)-2-(4,5,6,7-tetrahydrothieno[3,2-c]pyridin-2-yl)indolizine-7-carboxamide] yielded an IC50 below 100 nM.

In the case of `Cc1cc(C)c(CNC(=O)c2cc3c(-c4cccc(N5CCOCC5)c4)ccn3c(C(C)N3CCOCC3)c2C)c(=O)[nH]1` (centres unmarked) [Example 117, N-((4,6-dimethyl-2-oxo-1,2-dihydropyridin-3-yl)methyl)-6-methyl-5-(1-morpholinylethyl)-1-(3-morpholinylphenyl)indolizine-7-carboxamide], the IC50 is below 100 nM.

Staying with this test, now noted: read-out: IC50 (EZH2_Y641F); EZH2 Y641F PRC2 complex, HTRF; class symbols.
Turning to `COc1cccc(-c2cc3cc(C(=O)NCc4c(C)cc(C)[nH]c4=O)c(C)c(C(C)N4CCOCC4)n3c2)c1` (centres unmarked) [Example 95], the IC50 is below 100 nM.

Consider `COc1cccc(-c2cc3cc(C(=O)NCc4c(C)cc(C)[nH]c4=O)c(C)c(C(C)N4CCOCC4)n3c2)c1` (centres unmarked) [Example 96, N-((4,6-dimethyl-2-oxo-1,2-dihydropyridin-3-yl)methyl)-2-(3-methoxyphenyl)-6-methyl-5-(1-morpholinylethyl)indolizine-7-carboxamide], for which the IC50 was below 100 nM.

For the compound `CCN1CCN(C(C)c2c(C)c(C(=O)NCc3c(C)cc(C)[nH]c3=O)cc3cc(Br)cn23)CC1` (centres unmarked) [Example 98, N-((4,6-dimethyl-2-oxo-1,2-dihydropyridin-3-yl)methyl)-6-methyl-5-(1-(4-methylpiperazine)-1-ethyl)-2-bromoindolizine-7-carboxamide], the IC50 was in the range of 100 to 1000 nM.

For `CCN1CCN(C(C)c2c(C)c(C(=O)NCc3c(C)cc(C)[nH]c3=O)cc3cc(Br)cn23)CC1` (centres unmarked) [Example 99, N-((4,6-dimethyl-2-oxo-1,2-dihydropyridin-3-yl)methyl)-6-methyl-5-(1-(4-ethylpiperazine)-1-ethyl)-2-bromoindolizine-7-carboxamide], the IC50 fell in the range of 100 to 1000 nM.

Take `Cc1cc(C)c(CNC(=O)c2cc3cc(Br)cn3c(C(C)N3CCN(C(=O)CO)CC3)c2C)c(=O)[nH]1` (centres unmarked) [Example 101]: the IC50 is 100 to 1000 nM.

As for `Cc1cc(C)c(CNC(=O)c2cc3cc(Br)cn3c(C(C)N3CCN(C(=O)CO)CC3)c2C)c(=O)[nH]1` (centres unmarked) [Example 102], the IC50 is 1000 to 10000 nM.

As for `Cc1cc(C)c(CNC(=O)c2cc3cc(Br)cn3c(C(C)N3CCN(CCC(F)(F)F)CC3)c2C)c(=O)[nH]1` (centres unmarked) [Example 104], the IC50 lay within 100 to 1000 nM.

As to `Cc1cc(C)c(CNC(=O)c2cc3cc(Br)cn3c(C(C)N3CCN(CCC(F)(F)F)CC3)c2C)c(=O)[nH]1` (centres unmarked) [Example 105, 2-bromo-N-((4,6-dimethyl-2-oxo-1,2-dihydropyridin-3-yl)methyl)-6-methyl-5-(1-(4-(3,3,3-trifluoropropyl)piperazin-1-yl)ethyl)indolizine-7-carboxamide], the IC50 lay within 1000 to 10000 nM.

In the case of `COc1cc(C)[nH]c(=O)c1CNC(=O)c1cc2cc(-c3nccn3C)cn2c(C(C)N2CCC(N(C)C)CC2)c1C` (centres unmarked) [Example 107], the IC50 is below 100 nM.

As to `COc1cc(C)[nH]c(=O)c1CNC(=O)c1cc2cc(-c3nccn3C)cn2c(C(C)N2CCC(N(C)C)CC2)c1C` (centres unmarked) [Example 108], the IC50 is below 100 nM.

`Cc1cc(C)c(CNC(=O)c2cc3cc(-c4ccn[nH]4)cn3c(C(C)N3CCOCC3)c2C)c(=O)[nH]1` (centres unmarked) [Example 112, N-((4,6-dimethyl-2-oxo-1,2-dihydropyridin-3-yl)methyl)-6-methyl-5-(1-morpholinoethyl)-2-(pyrazol-5-yl)indolizine-7-carboxamide]: the IC50 is below 100 nM.

As to `Cc1cc(C)c(CNC(=O)c2cc3cc(-c4cc5c(s4)CCNC5)cn3c(C(C)N3CCOCC3)c2C)c(=O)[nH]1` (centres unmarked) [Example 114, N-((4,6-dimethyl-2-oxo-1,2-dihydropyridin-3-yl)methyl)-6-methyl-5-(1-morpholinoethyl)-2-(4,5,6,7-tetrahydro[2,3-c]pyridin-2-yl)indolizine-7-carboxamide], the IC50 was 100 to 1000 nM.

Consider `Cc1cc(C)c(CNC(=O)c2cc3c(-c4cccc(N5CCOCC5)c4)ccn3c(C(C)N3CCOCC3)c2C)c(=O)[nH]1` (centres unmarked) [Example 116, N-((4,6-dimethyl-2-oxo-1,2-dihydropyridin-3-yl)methyl)-1-(3-(dimethylamine)phenyl)-6-methyl-5-(1-morpholinylethyl)indolizine-7-carboxamide], for which the IC50 is below 100 nM.

Take `Cc1cc(C)c(CNC(=O)c2cc3c(-c4ccc(N5CCOCC5)cc4)ccn3c(C(C)N3CCOCC3)c2C)c(=O)[nH]1` (centres unmarked) [Example 118, N-((4,6-dimethyl-2-oxo-1,2-dihydropyridin-3-yl)methyl)-1-(4-(dimethylamine)phenyl)-6-methyl-5-(1-morpholinylethyl)indolizine-7-carboxamide]: the IC50 was below 100 nM.

With `Cc1cc(C)c(CNC(=O)c2cc3c(-c4ccc(N5CCOCC5)cc4)ccn3c(C(C)N3CCOCC3)c2C)c(=O)[nH]1` (centres unmarked) [Example 119, N-((4,6-dimethyl-2-oxo-1,2-dihydropyridin-3-yl)methyl)-6-methyl-5-(1-morpholinylethyl)-1-(4-morpholinylphenyl)indolizine-7-carboxamide], the IC50 is below 100 nM.
